Source: US10202343B2, “MIF modulators” (YALE UNIVERSITY, priority 2008, dated 2019)
Read-outs that look alike come from different tables or passages of the source. Each block holds one compound with its values, some of them ahead of it.

Key:
[1] = biological target: T1, MIF-CD74 Binding (biotin-labeled recombinant human MIF, recombinant human MIF receptor CD74 ectodomain) (Homo sapiens, UniProt P14174); experiment: MIF-CD74 binding (capture) assay; conditions: for CD74 % MaxInhib: number before @
T1 sequence (P14174 2-115 limits assumed): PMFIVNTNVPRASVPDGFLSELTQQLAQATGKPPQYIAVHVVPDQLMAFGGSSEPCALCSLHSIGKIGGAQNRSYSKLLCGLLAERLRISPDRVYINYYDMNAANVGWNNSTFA

[2] = tested on: MIF-dependent signal transduction (ERK1/2 phosphorylation); experiment: MIF-dependent signal transduction in cells (ERK1/2 phosphorylation); assay type: cell-based; conditions: compared to isoxazoline-1
Description: Two additional assays were performed on compounds according to the present invention. In the first, MIF-dependent signal transduction in cells as evidenced by a reduction in ERK1/2 phosphorylation and its inhibitory action is compared to the known small molecule MIF antagonist, isoxazoline-1 following the assay reported in Leng L., Metz C, Fang Y, Xu J, Donnelly S, Baugh J, Delonery T, Chen Y, Mitchell R A, and Bucala R. 2003. MIF Signal Transduction Initiated by Binding to CD74. J Exp Med 197, 1467-1476.

[3] = biological target: T2, Human MIF (MIF tautomerase activity) (Homo sapiens, UniProt P14174); experiment: HPP tautomerase assay; assay type: biochemical
T2 construct: made in house
T2 sequence (P14174 2-115 limits assumed): T1 sequence (P14174 2-115 limits assumed)

ovarian cancer cell line = experiment: growth of an ovarian cancer cell line; assay type: cell-based
From the text: KSP inhibitor ARRY-520 is used as a substitute for Paclitaxel in Type I ovarian cancer cells. J Transl Med. 7:63.

[4] = press release, cited from earlier work
MIF tautomerase activity = biological target: T3, MIF tautomerase activity (Homo sapiens, UniProt P14174); conditions: literature, Cheng & Al-Abed 2006; cited from earlier work
T3 sequence (P14174 2-115 limits assumed): T1 sequence (P14174 2-115 limits assumed)

Structure (SMILES): O=c1oc2ccc(F)cc2n1Cc1cccc(O)c1 [MIF-108]
activity in the ovarian cancer assay (growth inhibition) (ovarian cancer cell line): significant activity

Structure (SMILES): N#Cc1ccc2c(=O)n(-c3ccc(Cl)cc3)sc2c1 [Compound 37]
Capture % Max. Inhib. ([1]; Table 3): 16% | CD74 % MaxInhib ([1]; Table 6, data cell c8): 16% | IC50 ([3]; Table 3, read-out: HPP IC50): 3.1 µM | IC50 ([3]; Table 6, data cell c7, read-out: HPP IC50): 3.1 µM | activity in the ovarian cancer assay (growth inhibition) (ovarian cancer cell line): significant activity

Structure (SMILES): CC(C)(C)OC(=O)C[C@H]1CC(c2ccc(O)c(F)c2)=NO1 [(R)-17]
potency (inhibition of MIF tautomerase activity) (MIF tautomerase activity): 0.55 µM

Second part, led by results:

concentration of CD74 % MaxInhib (number after @) ([1]; Table 4): 0.0078 µM | IC50 ([3]; Table 4, read-out: HPP IC50): 0.01 µM
Structure (SMILES): Cc1ccc2oc(=O)n(Cc3cccc(O)c3)c2c1 [Compound 098]
inhibitory action on MIF-dependent ERK1/2 phosphorylation [2]: significant inhibitory action | activity in the ovarian cancer assay (growth inhibition) (ovarian cancer cell line): significant activity

activity in the capture assay [1]: inactive | IC50 ([3]; read-out: inhibitor in the HPP tautomerase assay): 4.5 µM
Structure (SMILES): Ic1cc(-c2ccccc2)ncn1 [Compound 4-IPP, 4-iodo-6-phenylpyrimidine, reference compound]
anti-tumor activity ([4]; by blocking tumor-specific angiogenesis): exhibits anti-tumor activity | safety profile ([4]; laboratory studies): favorable safety profile

concentration of CD74 % MaxInhib (number after @) ([1]; Table 4): 0.039 µM | CD74 % MaxInhib ([1]; Table 4): 22% | HPP Max Inhib ([3]; Table 1): 28% | concentration of HPP Max Inhib (number after @) ([3]; Table 4): 5 µM
Structure (SMILES): O=c1oc2cc(O)ccc2n1Cc1ccccc1 [Compound 14]

concentration of CD74 % MaxInhib (number after @) ([1]; Table 7): 3.76 µM | CD74 % MaxInhib ([1]; Table 7, data cell c7): 26% | concentration of HPP % MaxInhib (number after @) ([3]; Table 7): 50 µM | HPP % MaxInhib ([3]; Table 7, data cell c6, number before @): 14%
Structure (SMILES): Cc1ccc2nc(-c3ccc(Cl)cc3)oc2c1 [MIF-123]

IC50 ([1]; Table 21, column beside HPP IC50): Agonist | HPP IC50 ([3]; Table 21): agonist
Structure (SMILES): Oc1ccc(-n2cc(-c3cncc4ccccc34)nn2)cc1 [MIF-021]
